In ChEMBL document CHEMBL5360625, “Design, Synthesis, and Antitumor Activity Evaluation of 2-Arylmethoxy-4-(2,2'-dihalogen-substituted biphenyl-3-ylmethoxy) Benzylamine Derivatives as Potent PD-1/PD-L1 Inhibitors” (J Med Chem, 2023):
Calls of active or inactive are those of the source. The rule behind the calls is not given here.

Legend:
[1] = AUC (0 to t) in Sprague-Dawley rat at 8 mg/kg, iv measured upto 48 hrs by LC-MS/MS analysis; assay type: ADME, organism-based; set-up: dose 8 mg/kg, time < 48 hrs, route iv; conditions: in vivo
[2] = Half life in Sprague-Dawley rat at 10 mg/kg, ip measured upto 48 hrs by LC-MS/MS analysis; assay type: ADME, organism-based; conditions: in vivo
[3] = test system: MC-38; test: Antitumor activity against mouse MC38 cells implanted in PD-1/PD-L1 humanized C57/BL6 mouse assessed as tumor growth inhibition at 50 mg/kg, IG qd administered on day 5 measured after 2 weeks; assay type: functional; conditions: MC-38, po, 336 h, read-out: TGI
[4] = test system: MC-38; test: Antitumor activity against mouse MC38 cells expressing human PD-L1 protein assessed as reduction in cell viability measured after 48 hrs by CCK-8 assay; assay type: functional, cell-based; conditions: MC-38, 48 h
[5] = target: Programmed cell death 1 ligand 1 (Homo sapiens, UniProt Q9NZQ7); test: Binding affinity to human PD-L1 expressed in Escherichia coli strain BL21 assessed as dissociation constant by NMR spectroscopic analysis
[6] = Apparent volume of distribution in Sprague-Dawley rat at 40 mg/kg, IG measured upto 48 hrs by LC-MS/MS analysis; assay type: ADME, organism-based; conditions: in vivo, po
[7] = test system: MC-38; test: Antitumor activity against mouse MC38 cells implanted in PD-1/PD-L1 humanized C57/BL6 mouse assessed as increase in perforin levels at 50 mg/kg, IG qd administered on day 5 measured after 2 weeks by microscopic analysis; assay type: functional, organism-based
[8] = Cmax in Sprague-Dawley rat at 8 mg/kg, iv measured upto 48 hrs by LC-MS/MS analysis; assay type: ADME, organism-based; set-up: time < 48 hrs, dose 8 mg/kg, route iv; conditions: in vivo
[9] = Toxicity in PD-1/PD-L1 humanized C57/BL6 mouse implanted with mouse MC38 cells assessed as morphological change in kidney at 50 mg/kg, IG qd administered on day 5 measured after 2 weeks by hematoxylin-eosin staining based inverted fluorescent microscopic analysis; assay type: organism-based, MC-38; conditions: in vivo, po, 336 h
[10] = AUC (0 to t) in Sprague-Dawley rat at 10 mg/kg, ip measured upto 48 hrs by LC-MS/MS analysis; assay type: ADME, organism-based; set-up: time < 48 hrs, dose 10 mg/kg, route ip; conditions: in vivo
[11] = Toxicity in PD-1/PD-L1 humanized C57/BL6 mouse implanted with mouse MC38 cells assessed as morphological change in spleen at 50 mg/kg, IG qd administered on day 5 measured after 2 weeks by hematoxylin-eosin staining based inverted fluorescent microscopic analysis; assay type: organism-based, MC-38; conditions: in vivo, po, 336 h
[12] = test system: MC-38; test: Antitumor activity against mouse MC38 cells implanted in PD-1/PD-L1 humanized C57/BL6 mouse assessed as reduction in tumor growth at 50 mg/kg, IG qd administered on day 5 measured after 2 weeks; assay type: functional, organism-based
[13] = Apparent volume of distribution in Sprague-Dawley rat at 10 mg/kg, ip measured upto 48 hrs by LC-MS/MS analysis; assay type: ADME, organism-based; conditions: in vivo
[14] = Cmax in Sprague-Dawley rat at 40 mg/kg, IG measured upto 48 hrs by LC-MS/MS analysis; assay type: ADME, organism-based; set-up: dose 40 mg/kg, time < 48 hrs, route ig; conditions: in vivo, po
[15] = target: Programmed cell death protein 1/Programmed cell death 1 ligand 1 (Homo sapiens, UniProt Q9NZQ7); test: Inhibition of PD-1/PD-L1 interaction (unknown origin) incubated for 1 hr by HTRF assay; assay type: protein-complex assay
[16] = Tmax in Sprague-Dawley rat at 8 mg/kg, iv measured upto 48 hrs by LC-MS/MS analysis; assay type: ADME, organism-based; conditions: in vivo
[17] = target: Programmed cell death protein 1/Programmed cell death 1 ligand 1 (Homo sapiens) (UniProt Q15116+Q9NZQ7); test: Inhibition of PD-1/PD-L1 interaction in human PBMC cells assessed as increase in IFN-gamma secretion at 4 uM incubated for 48 hrs in presence of PD-L1 protein by ELISA assay; assay type: cell-based
[18] = AUC (0 to infinity) in Sprague-Dawley rat at 10 mg/kg, ip measured upto 48 hrs by LC-MS/MS analysis; assay type: ADME, organism-based; set-up: time < 48 hrs, dose 10 mg/kg, route ip; conditions: in vivo
[19] = Tmax in Sprague-Dawley rat at 40 mg/kg, IG measured upto 48 hrs by LC-MS/MS analysis; assay type: ADME, organism-based; conditions: in vivo, po
[20] = test system: MC-38; test: Immunomodulatory activity in mouse MC38 cells implanted in PD-1/PD-L1 humanized C57/BL6 mouse assessed as increase in CXCR3 mRNA expression level in tumor at 50 mg/kg, IG qd administered on day 5 measured after 2 weeks by RT-PCR analysis; assay type: functional, organism-based
[21] = Hepatotoxicity in PD-1/PD-L1 humanized C57/BL6 mouse implanted with mouse MC38 cells assessed as effect on ALB level in serum at 50 mg/kg, IG qd administered on day 5 measured after 2 weeks; assay type: toxicity, organism-based, MC-38; conditions: in vivo, po, 336 h
[22] = test system: PBMC; test: Cytotoxicity against human PBMC cells assessed as reduction in cell viability at 1 to 4 uM measured after 48 hrs by CCK-8 assay; assay type: toxicity, cell-based; conditions: dose 1-4 µM
[23] = test system: MC-38; test: Antitumor activity against mouse MC38 cells implanted in PD-1/PD-L1 humanized C57/BL6 mouse assessed as increase in granzyme B level at 50 mg/kg, IG qd administered on day 5 measured after 2 weeks by microscopic analysis; assay type: functional, organism-based
[24] = AUC (0 to t) in Sprague-Dawley rat at 40 mg/kg, IG measured upto 48 hrs by LC-MS/MS analysis; assay type: ADME, organism-based; set-up: dose 40 mg/kg, time < 48 hrs, route ig; conditions: in vivo, po
[25] = Clearance in Sprague-Dawley rat at 40 mg/kg, IG measured upto 48 hrs by LC-MS/MS analysis; assay type: ADME, organism-based; conditions: Sprague-Dawley, in vivo, po
[26] = Apparent volume of distribution in Sprague-Dawley rat at 8 mg/kg, iv measured upto 48 hrs by LC-MS/MS analysis; assay type: ADME, organism-based; conditions: Sprague-Dawley, in vivo, read-out: Vz
[27] = Toxicity in PD-1/PD-L1 humanized C57/BL6 mouse implanted with mouse MC38 cells assessed as morphological change in heart at 50 mg/kg, IG qd administered on day 5 measured after 2 weeks by hematoxylin-eosin staining based inverted fluorescent microscopic analysis; assay type: organism-based, MC-38; conditions: in vivo, po, 336 h
[28] = test system: MC-38; test: Immunomodulatory activity in mouse MC38 cells implanted in PD-1/PD-L1 humanized C57/BL6 mouse assessed as decrease in PD-L1 mRNA expression level in tumor at 50 mg/kg, IG qd administered on day 5 measured after 2 weeks by RT-PCR analysis; assay type: functional, organism-based
[29] = Nephrotoxicity in PD-1/PD-L1 humanized C57/BL6 mouse implanted with mouse MC38 cells assessed as effect on creatinine level in serum at 50 mg/kg, IG qd administered on day 5 measured after 2 weeks; assay type: toxicity, organism-based, MC-38; conditions: in vivo, po, 336 h
[30] = Bioavailability in Sprague-Dawley rat at 40 mg/kg, IG measured upto 48 hrs by LC-MS/MS analysis; assay type: ADME, organism-based; conditions: in vivo, po
[31] = test system: MC-38; test: Immunomodulatory activity in mouse MC38 cells implanted in PD-1/PD-L1 humanized C57/BL6 mouse assessed as increase in CXCL10 mRNA expression level in tumor at 50 mg/kg, IG qd administered on day 5 measured after 2 weeks by RT-PCR analysis; assay type: functional, organism-based
[32] = Clearance in Sprague-Dawley rat at 8 mg/kg, iv measured upto 48 hrs by LC-MS/MS analysis; assay type: ADME, organism-based; conditions: Sprague-Dawley, in vivo
[33] = Cmax in Sprague-Dawley rat at 10 mg/kg, ip measured upto 48 hrs by LC-MS/MS analysis; assay type: ADME, organism-based; set-up: time < 48 hrs, dose 10 mg/kg, route ip; conditions: in vivo

Programmed cell death protein 1/Programmed cell death 1 ligand 1, sequence (Q15116 whole entry): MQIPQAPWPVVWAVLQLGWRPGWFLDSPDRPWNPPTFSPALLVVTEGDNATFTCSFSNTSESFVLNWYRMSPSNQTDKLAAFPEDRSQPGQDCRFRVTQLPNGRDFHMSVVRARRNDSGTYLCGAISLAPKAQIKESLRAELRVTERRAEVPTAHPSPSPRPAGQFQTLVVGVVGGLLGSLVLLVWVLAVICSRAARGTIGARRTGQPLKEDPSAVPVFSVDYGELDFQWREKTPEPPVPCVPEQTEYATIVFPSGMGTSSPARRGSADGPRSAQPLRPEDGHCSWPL
Programmed cell death protein 1/Programmed cell death 1 ligand 1, sequence (Q9NZQ7 whole entry): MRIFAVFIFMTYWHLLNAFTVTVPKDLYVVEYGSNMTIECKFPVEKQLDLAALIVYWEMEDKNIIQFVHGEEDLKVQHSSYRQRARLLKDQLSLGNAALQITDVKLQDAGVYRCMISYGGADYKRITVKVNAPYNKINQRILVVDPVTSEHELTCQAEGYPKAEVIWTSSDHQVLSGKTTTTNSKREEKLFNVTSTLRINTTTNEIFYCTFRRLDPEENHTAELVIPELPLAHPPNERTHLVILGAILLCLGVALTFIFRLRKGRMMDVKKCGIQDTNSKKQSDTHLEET
Programmed cell death 1 ligand 1, sequence (Q9NZQ7 whole entry): as above

N#Cc1cncc(COc2cc(OCc3cccc(-c4ccccc4F)c3Cl)ccc2CNCCO)c1
AUC(0-t) at 48 h [1]: 11500 ng·h/mL | half-life [2]: 2.43 h | inhibition in vivo at 50 mg/kg [3]: 55.2% | IC50 [4]: > 8 µM | Kd [5]: < 1 µM | Vz [6]: 1.8 L/kg | Activity [7]: Active | Cmax [8]: 6230 ng/mL | Activity [9]: Non-Toxic | AUC(0-t) at 48 h [10]: 9730 ng·h/mL | Activity [11]: Non-Toxic | Activity [12]: Active | Vz [13]: 2.94 L/kg | Cmax [14]: 21500 ng/mL | IC50 [15]: 24 µM | Tmax [16]: 4.8 min | inhibition [17]: Active | AUC(0-inf) [18]: 10500 ng·h/mL | Tmax [19]: 1.75 h | Activity [20]: Active | Activity [21]: Non-Toxic | Activity [22]: Non-Toxic | Activity [23]: Active | AUC(0-t) at 48 h [24]: 63600 ng·h/mL | CL/F [25]: 10.3 mL/min/kg | Vd [26]: 1.09 L/kg | Activity [27]: Non-Toxic | Activity [28]: Active | Activity [29]: Non-Toxic | bioavailability [30]: 114% | Activity [31]: Active | clearance [32]: 10 mL/min/kg | Cmax [33]: 4160 ng/mL
